Data: ChEMBL document CHEMBL5143695, “Benzobis(imidazole) derivatives as STAT3 signal inhibitors with antitumor activity” (Bioorg Med Chem, 2022)
The source made the active and inactive calls. The rule behind the calls is not given here.

Legend:
HepG2 [1] = test: Antitumor activity against human HepG2 cells xenografted in BALB/c athymic nude mouse assessed as tumor growth inhibition at 40 mg/kg, ip administered daily for 24 days relative to control; assay type: functional; settings: HepG2, 576 h, time 24 day, read-out: TGI
HepG2 [2] = test: Induction of apoptosis in human HepG2 cells assessed as necrotic cells at 10 uM incubated for 48 hrs by Annexin V/PI staining based flow cytometry method (reference value: 0.57%); assay type: functional
HepG2 [3] = test: Induction of apoptosis in human HepG2 cells assessed as early apoptotic cells at 20 uM incubated for 48 hrs by Annexin V/PI staining based flow cytometry method (reference value: 3.31%); assay type: functional
[4] = target: Signal transducer and activator of transcription 3 (Homo sapiens) (UniProt P40763); test: Inhibition of STAT3 phosphorylation at Y705 residue in human EC109 cells measured after 16 hrs by Western blotting analysis; assay type: cell-based; settings: dose 2.5-20 µM, DDE = dose-dependent effect
Chain of Signal transducer and activator of transcription 3 (Homo sapiens) (P40763 whole entry): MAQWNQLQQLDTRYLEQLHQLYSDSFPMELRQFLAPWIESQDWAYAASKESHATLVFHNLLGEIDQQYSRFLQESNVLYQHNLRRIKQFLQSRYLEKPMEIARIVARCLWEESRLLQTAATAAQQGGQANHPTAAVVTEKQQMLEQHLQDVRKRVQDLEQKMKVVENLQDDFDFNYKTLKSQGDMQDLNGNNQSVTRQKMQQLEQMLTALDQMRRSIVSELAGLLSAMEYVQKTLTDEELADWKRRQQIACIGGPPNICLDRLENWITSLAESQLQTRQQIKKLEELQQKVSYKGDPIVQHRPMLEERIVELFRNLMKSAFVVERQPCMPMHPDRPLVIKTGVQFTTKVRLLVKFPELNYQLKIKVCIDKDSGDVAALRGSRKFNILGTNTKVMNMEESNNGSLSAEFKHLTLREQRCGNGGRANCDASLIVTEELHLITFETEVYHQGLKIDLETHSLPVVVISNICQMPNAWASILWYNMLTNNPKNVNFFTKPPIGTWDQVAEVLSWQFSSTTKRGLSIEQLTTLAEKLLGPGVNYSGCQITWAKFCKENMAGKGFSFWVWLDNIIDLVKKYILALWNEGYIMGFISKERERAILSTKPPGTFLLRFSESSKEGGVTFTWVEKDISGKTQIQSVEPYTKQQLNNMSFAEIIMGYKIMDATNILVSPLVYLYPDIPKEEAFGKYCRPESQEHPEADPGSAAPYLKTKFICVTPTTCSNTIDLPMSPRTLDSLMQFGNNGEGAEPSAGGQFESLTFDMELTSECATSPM

ECa-109 cell line [5] = test: Induction of apoptosis in human EC109 cells assessed as necrotic cells at 20 uM incubated for 48 hrs by Annexin V/PI staining based flow cytometry method (reference value: 0.73%); assay type: functional
ECa-109 cell line [6] = test: Induction of apoptosis in human EC109 cells assessed as necrotic cells at 5 uM incubated for 48 hrs by Annexin V/PI staining based flow cytometry method (reference value: 0.73%); assay type: functional
HepG2 [7] = test: Induction of cell cycle arrest in human HepG2 cells assessed as downregulation of cyclin D1 protein expression by Western blotting analysis; assay type: functional, cell-based; settings: dose 2.5-20 µM, DDE = dose-dependent effect
ECa-109 cell line [8] = test: Induction of apoptosis in human EC109 cells assessed as viable cells at 10 uM incubated for 48 hrs by Annexin V/PI staining based flow cytometry method (reference value: 91.7%); assay type: functional; settings: read-out: Activity
HepG2 [9] = test: Induction of cell cycle arrest in human HepG2 cells assessed as decrease in cells at S phase incubated for 24 hrs by flow cytometric analysis (reference value: 23.01%); assay type: functional; parameters: scale not given: the % may be the effect or the level left
HepG2 [10] = test: Induction of apoptosis in human HepG2 cells assessed as late apoptotic cells at 5 uM incubated for 48 hrs by Annexin V/PI staining based flow cytometry method (reference value: 3.64%); assay type: functional
ECa-109 cell line [11] = test: Induction of apoptosis in human EC109 cells assessed as late apoptotic cells at 10 uM incubated for 48 hrs by Annexin V/PI staining based flow cytometry method (reference value: 6.17%); assay type: functional
[12] = Inhibition of IL-6/JAK/STAT3 signalling pathway in HEK-blue IL-6 cells incubated for 16 hrs by SEAP reporter gene based QUANTI- blue assay; assay type: cell-based; settings: Homo sapiens, HEK-Blue IL-6, 16 h
ECa-109 cell line [13] = test: Induction of apoptosis in human EC109 cells assessed as downregulation of cyclin D1 protein expression by Western blotting analysis; assay type: functional, cell-based; settings: dose 2.5-20 µM, DDE = dose-dependent effect
HepG2 [14] = test: Induction of apoptosis in human HepG2 cells assessed as late apoptotic cells at 20 uM incubated for 48 hrs by Annexin V/PI staining based flow cytometry method (reference value: 3.64%); assay type: functional
ECa-109 cell line [15] = test: Induction of apoptosis in human EC109 cells assessed as viable cells at 5 uM incubated for 48 hrs by Annexin V/PI staining based flow cytometry method (reference value: 91.7%); assay type: functional; settings: read-out: Activity
[16] = target: Signal transducer and activator of transcription 3 (Homo sapiens) (UniProt P40763); test: Inhibition of STAT3 dimerization in human HepG2 cells assessed as decrease in STAT3 dimer formation at 5 to 10 uM incubated for 24 hrs by SDS-PAGE based DSS crosslink assay; assay type: cell-based; settings: dose 5-10 µM
[17] = target: Signal transducer and activator of transcription 3 (Homo sapiens) (UniProt P40763); test: Inhibition of IL-6 induced STAT3 phosphorylation at Tyr705 residue in human EC109 cells preincubated for 16 hrs followed by IL-6 stimulation for 30 mins by Western blot analysis; assay type: cell-based; settings: dose 2.5-20 µM, DDE = dose-dependent effect
ECa-109 cell line [18] = test: Inhibition of cell migration in human EC109 cells incubated for 48 hrs by microscopic analysis based wound healing assay; assay type: functional; settings: dose 5-10 µM, DDE = dose-dependent effect

## CCCn1c(-c2cccc(OC)c2)nc2cc3nc(-c4cccc(OC)c4)n(CCC)c3cc21
HepG2 [1]
  inhibition in vivo at 40 mg/kg: 47.3%
HepG2 [2]
  Activity: 1.49%
HepG2 [3]
  Activity: 29.9%
[4]
  inhibition: Dde
ECa-109 cell line [5]
  Activity: 3.56%
ECa-109 cell line [6]
  Activity: 0.87%
HepG2 [7]
  Activity: Dde
ECa-109 cell line [8]
  viability at 10 µM: 70.5%
HepG2 [9]
  Activity: 16.55%
HepG2 [10]
  Activity: 13.4%
ECa-109 cell line [11]
  Activity: 17.2%
[12]
  IC50: 2610 nM
ECa-109 cell line [13]
  Activity: Dde
HepG2 [14]
  Activity: 51.9%
ECa-109 cell line [15]
  viability at 5 µM: 85.8%
[16]
  inhibition: Active
[17]
  inhibition: Dde
ECa-109 cell line [18]
  inhibition: Dde
